Source: PubChem BioAssay AID1549 (Sanford-Burnham Center for Chemical Genomics, 2009)
Calls of active or inactive are those of the source. How the calls were made is not given here.

The molecules below were run against Influenza A virus M2 proton channel (A/TW/4845/1999 H1N1) (assay: M2 proton channel binding, NMR based, influenza A virus H1N1 strain (AID 1549)). Conditions: NMR binding screen, M2 protein.
`CSc1ccccc1NC(=O)c1c(C)noc1C` was tested, and the Kd was > 4 mM (inactive).
`Oc1ccc(/C=C/c2cc(O)cc(O)c2)cc1` was tested, and the Kd was > 4 mM (inactive).
With `Cc1nc(SCC(=O)c2c[nH]c3ccccc23)n[nH]1` the Kd was > 4 mM (inactive).
In the case of `CN(c1ccc(C(=O)N2CCCCC2)cc1)S(C)(=O)=O`, the Kd is reported as > 4 mM (inactive).
`CC(=O)Nc1nnc(-c2ccccc2S(C)(=O)=O)o1` was tested, and the Kd was > 4 mM (inactive).
In the case of `Nc1ccc2c(C(F)(F)F)cc(=O)oc2c1`, the Kd is reported as > 4 mM (inactive).
For `CC(C)(C(N)=O)/[N+]([O-])=C\c1ccccc1`, the Kd was > 4 mM (inactive).
`S=C(NC1CC1)NN1CCOCC1` was tested, and the Kd was > 4 mM (inactive).
For `CC(=O)O[C@H]1CC[C@@]2(C)C(C[C@@H](OC(C)=O)[C@@]3(C)C4=CC(=O)O[C@@H](c5ccoc5)[C@]4(C)CCC23)C1(C)C` (stereo partly specified), the Kd was > 4 mM (inactive).
In the case of `N#Cc1c[nH]n2c(=O)cc(Cc3ccccc3)nc12`, the Kd is reported as > 4 mM (inactive).
In the case of `Cc1nc2ccccc2c(=O)n1CCCO`, the Kd is reported as > 4 mM (inactive).
In the case of `CC(=O)OCc1cc(=O)n(C)c(=O)n1C`, the Kd is reported as > 4 mM (inactive).
`CCOC(=O)Cc1cc(=O)n2[nH]c(C)cc2n1` was tested, and the Kd was > 4 mM (inactive).
For `O=C(NC12CC3CC(CC(C3)C1)C2)c1cnccn1`, the Kd was > 4 mM (inactive).
`CC(=O)NCCc1cc2ccc(C)c(C)c2[nH]c1=O` was tested, and the Kd was > 4 mM (inactive).
With `OC[C@H]1O[C@@H](O[C@H]2[C@H](O)[C@@H](O)[C@@H](O)O[C@@H]2CO)[C@H](O)[C@@H](O)[C@@H]1O` the Kd was > 4 mM (inactive).
`Cc1ccc(C)c(C(=O)NCc2ccncc2)c1` was tested, and the Kd was > 4 mM (inactive).
`COc1ccc2cc1Oc1ccc(cc1)C[C@H]1c3cc(c(OC)cc3CCN1C)Oc1c(OC)c(OC)cc3c1[C@H](C2)N(C)CC3` was tested, and the Kd was > 4 mM (inactive).
With `Cc1nn(C)c(C)c1NC(=S)NC1CCCC1` the Kd was > 4 mM (inactive).
`c1ccc(CCN2CCN(CCc3ccccn3)CC2)nc1` was tested, and the Kd was > 4 mM (inactive).
With `COC(=O)c1oc2ccc(Cl)cc2c1NC(C)=O` the Kd was > 4 mM (inactive).
In the case of `CN1CCN(c2ccc(N)cc2)CC1`, the Kd is reported as > 4 mM (inactive).
`COC(=O)c1ccc2ncccc2c1` was tested, and the Kd was > 4 mM (inactive).
For `Cc1ccc2[nH]cc(CCN)c2c1`, the Kd was > 4 mM (inactive).
With `NC(=O)c1ccsc1NC(=O)c1ccccc1[N+](=O)[O-]` the Kd was > 4 mM (inactive).
In the case of `c1ccc(Cn2c(Nn3cnnc3)nc3ccccc32)cc1`, the Kd is reported as > 4 mM (inactive).
With `Cc1ccc(NC(=O)N2CCC(C(N)=O)CC2)cc1` the Kd was > 4 mM (inactive).
In the case of `Nc1ncnc2nc[nH]c12`, the Kd is reported as > 4 mM (inactive).
For `CC(C)[C@@H]1CC[C@@H](C)C[C@H]1OC(=O)c1ccccc1`, the Kd was > 4 mM (inactive).
`NC1C2CC3CC1CC(O)(C3)C2` (stereo unspecified) was tested, and the Kd was > 4 mM (inactive).
With `Nc1ccc2sccc2c1` the Kd was > 4 mM (inactive).
With `Cc1nn(CC(=O)Nc2ccccc2)c(=O)c2ccccc12` the Kd was > 4 mM (inactive).
In the case of `COc1ccc(NC(=O)c2ccc[n+]([O-])c2)cc1`, the Kd is reported as > 4 mM (inactive).
For `C(=N\c1ncn[nH]1)/c1cccs1`, the Kd was > 4 mM (inactive).
With `COc1nc(C#N)c(N2CCOCC2)o1` the Kd was > 4 mM (inactive).
In the case of `CC(=O)Nc1ccc(NC(=O)C2CC2)cc1`, the Kd is reported as > 4 mM (inactive).
`Clc1ccc(-c2nnc3ccccn23)cc1` was tested, and the Kd was > 4 mM (inactive).
For `Cc1cccc(NC(=O)c2ccccc2C(=O)O)c1`, the Kd was > 4 mM (inactive).
With `CCOC(=O)c1c(C)nc2cc(C)ccn12` the Kd was > 4 mM (inactive).
`COC(=O)[C@]1(C)CC[C@]2(C)CC[C@]3(C)C4=CCc5c(cc(O)c(O)c5C)[C@]4(C)CC[C@@]3(C)C2C1` (stereo partly specified) was tested, and the Kd was > 4 mM (inactive).
For `NC1=NC(=O)/C(=C\c2cccnc2)S1`, the Kd was > 4 mM (inactive).
With `COc1cc2occc2c2oc(=O)ccc12` the Kd was > 4 mM (inactive).
For `Cc1ccc(C)n1NC(=O)c1ccco1`, the Kd was > 4 mM (inactive).
For `Cc1ccc2cc(CO)ccc2n1`, the Kd was > 4 mM (inactive).
For `CC1=CCc2c(cc3oc(C)cc(=O)c3c2O)OC1`, the Kd was > 4 mM (inactive).
In the case of `Cc1cc(C)n(-c2ccc(Cl)nn2)n1`, the Kd is reported as > 4 mM (inactive).
